Reference: patent US11053239B2, “Compounds as BLC-2-selective apoptosis-inducing agents” (Fochon Pharmaceuticals, Ltd., priority 2017, dated 2021)
Read-outs that look alike come from different tables or passages of the source.

Assays:
RS4; 11 cells = assay: Cell proliferation assay (MTS), RS4; 11 cells; format: cell-based; conditions: RS4, 11 (ATCC CRL-1873) cell proliferation, 30000 cells/well, 72 h, MTS, mechanism-based readout of Bcl-2 inhibition, read-out: RS4, 11 IC50
Method in brief: (§1)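 RS4;11 (30000 cells/well, 72 h) and DOHH2 (5000 cells/well, 120 h) cells in RPMI-1640/10% FBS, treated at 37 °C with compound at 1.5–10000 nM final. Viability by MTS (2 h, SDS stop), absorbance 490 nm minus 650 nm reference; IC50 fitted.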

DOHH2 cells = assay: Cell proliferation assay (MTS), DOHH2 cells; format: cell-based; conditions: DOHH2 (DSMZ ACC 47) cell proliferation, 5000 cells/well, 120 h, MTS, mechanism-based readout of Bcl-2 inhibition, read-out: DOHH2 IC50
Method in brief: as §1

IC50 (RS4; 11 cells; Homo sapiens, RS4-11, 72 h) [nM]	SMILES	IC50 (DOHH2 cells; Homo sapiens, DOHH-2, 120 h) [nM]	IC50 (RS4; 11 cells) [nM]	IC50 (DOHH2 cells) [nM]
6	CC1(C)CCC(CN2CCN(c3ccc(C(=O)NS(=O)(=O)c4ccc(NCC5(F)CCC(N=S(C)(C)=O)CC5)c([N+](=O)[O-])c4)c(Oc4cnc5[nH]ccc5c4)c3)CC2)=C(c2ccc(Cl)cc2)C1 (stereo not shown) [Example 58, 2-((1H-pyrrolo[2,3-b]pyridin-5-yl)oxy)-4-(4-((4′-chloro-5,5-dimethyl-3,4,5,6-tetrahydro-[1,1′-biphenyl]-2-yl)methyl)piperazin-1-yl)-N-((4-(((4-((dimethyl(oxo)-λ^6-sulfanylidene)amino)-1-fluorocyclohexyl)methyl)amino)-3-nitrophenyl)sulfonyl)benzamide]	16		
21	CCS(=O)(CC)=NC1CC(CNc2ccc(S(=O)(=O)NC(=O)c3ccc(N4CCN(CC5=C(c6ccc(Cl)cc6)CC(C)(C)CC5)CC4)cc3Oc3cnc4[nH]ccc4c3)cc2[N+](=O)[O-])C1 (stereo not shown) [Example 60, 2-((1H-pyrrolo[2,3-b]pyridin-5-yl)oxy)-4-(4-((4′-chloro-5,5-dimethyl-3,4,5,6-tetrahydro-[1,1′-biphenyl]-2-yl)methyl)piperazin-1-yl)-N-((4-(((3-((diethyl(oxo)-λ^6-sulfanylidene)amino)cyclobutyl)methyl)amino)-3-nitrophenyl)sulfonyl)benzamide]	49		
3	CC1(C)CCC(CN2CCN(c3ccc(C(=O)NS(=O)(=O)c4ccc(NCC5CCC(N=S(C)(C)=O)CC5)c([N+](=O)[O-])c4)c(Oc4cnc5[nH]ccc5c4)c3)CC2)=C(c2ccc(Cl)cc2)C1 (single isomer, unassigned) [Example 50A, 2-((1H-pyrrolo[2,3-b]pyridin-5-yl)oxy)-4-(4-((4′-chloro-5,5-dimethyl-3,4,5,6-tetrahydro-[1,1′-biphenyl]-2-yl)methyl)piperazin-1-yl)-N-((4-(((4-((dimethyl(oxo)-λ^6-sulfanylidene)amino)cyclohexyl)methyl)amino)-3-nitrophenyl)sulfonyl) benzamide]			3.5
14	C[C@@H](CCN1CCS(=O)(=NC2CC2)CC1)Nc1ccc(S(=O)(=O)NC(=O)c2ccc(N3CCN(CC4=C(c5ccc(Cl)cc5)CC(C)(C)CC4)CC3)cc2Oc2cnc3[nH]ccc3c2)cc1[N+](=O)[O-] [Example 79, (S)-2-((1H-pyrrolo[2,3-b]pyridin-5-yl)oxy)-4-(4-((4′-chloro-5,5-dimethyl-3,4,5,6-tetrahydro-[1,1′-biphenyl]-2-yl)methyl)piperazin-1-yl)-N-((4-((4-(1-(cyclopropylimino)-1-oxido-1λ^6-thiomorpholino)butan-2-yl)amino)-3-nitrophenyl)sulfonyl)benzamide]	11		
106	CCN=S1(=O)CCN(CCNc2ccc(S(=O)(=O)NC(=O)c3ccc(N4CCN(CC5=C(c6ccc(Cl)cc6)CC(C)(C)CC5)CC4)cc3Oc3cnc4[nH]ccc4c3)cc2[N+](=O)[O-])CC1 [Example 34, 2-((1H-pyrrolo[2,3-b]pyridin-5-yl)oxy)-4-(4-((4′-chloro-5,5-dimethyl-3,4,5,6-tetrahydro-[1,1′-biphenyl]-2-yl)methyl)piperazin-1-yl)-A,-((4-((2-(1-(ethylimino)-1-oxido-1λ^6-thiomorpholino)ethyl)amino)-3-nitrophenyl)sulfonyl) benzamide]	38		
187	C[C@@H](CCN1CCS(=O)(=NC2CC2)CC1)Nc1ccc(S(=O)(=O)NC(=O)c2ccc(N3CCN(CC4=C(c5ccc(Cl)cc5)CC(C)(C)CC4)CC3)cc2Oc2cnc3[nH]ccc3c2)cc1S(=O)(=O)C(F)(F)F [Example 88, (S)-2-((1H-pyrrolo[2,3-b]pyridin-5-yl)oxy)-4-(4-((4′-chloro-5,5-dimethyl-3,4,5,6-tetrahydro-[1,1′-biphenyl]-2-yl)methyl)piperazin-1-yl)-N-((4-((4-(1-(cyclopropylimino)-1-oxido-1λ^6-thiomorpholino)butan-2-yl)amino)-3-((trifluoromethyl)sulfonyl)phenyl)sulfonyl)benzamide]	464		

Continued, compound first:

SMILES	IC50 (RS4; 11 cells; Homo sapiens, RS4-11, 72 h) [nM]	IC50 (DOHH2 cells; Homo sapiens, DOHH-2, 120 h) [nM]	IC50 (RS4; 11 cells) [nM]	IC50 (DOHH2 cells) [nM]
CN=S1(=O)CCN(CC[C@H](C)Nc2ccc(S(=O)(=O)NC(=O)c3ccc(N4CCN(CC5=C(c6ccc(Cl)cc6)CC(C)(C)CC5)CC4)cc3Oc3cnc4[nH]ccc4c3)cc2[N+](=O)[O-])CC1 [Example 94, (S)-2-((1H-pyrrolo[2,3-b]pyridin-5-yl)oxy)-4-(4-((4′-chloro-5,5-dimethyl-3,4,5,6-tetrahydro-[1,1′-biphenyl]-2-yl)methyl)piperazin-1-yl)-N-((4-((4-(1-(methylimino)-1-oxido-1λ^6-thiomorpholino)butan-2-yl)amino)-3-nitrophenyl)sulfonyl) benzamide]	27	15		
CC1(C)CCC(CN2CCN(c3ccc(C(=O)NS(=O)(=O)c4ccc(NCC5CCC(N=S(C)(C)=O)CC5)c([N+](=O)[O-])c4)c(Oc4cnc5[nH]ccc5c4)c3)CC2)=C(c2ccc(Cl)cc2)C1 (single isomer, unassigned) [Example 50B, 2-((1H-pyrrolo[2,3-b]pyridin-5-yl)oxy)-4-(4-((4′-chloro-5,5-dimethyl-3,4,5,6-tetrahydro-[1,1′-biphenyl]-2-yl)methyl)piperazin-1-yl)-N-((4-(((4-((dimethyl(oxo)-λ^6-sulfanylidene)amino)cyclohexyl)methyl)amino)-3-nitrophenyl)sulfonyl) benzamide]			4	13.4
CC1(C)CCC(CN2CCN(c3ccc(C(=O)NS(=O)(=O)c4ccc(NCC5CCC(N=S6(=O)CCOCC6)CC5)c([N+](=O)[O-])c4)c(Oc4cnc5[nH]ccc5c4)c3)CC2)=C(c2ccc(Cl)cc2)C1 (stereo not shown) [Example 54, 2-((1H-pyrrolo[2,3-b]pyridin-5-yl)oxy)-4-(4-((4′-chloro-5,5-dimethyl-3,4,5,6-tetrahydro-[1,1′-biphenyl]-2-yl)methyl)piperazin-1-yl)-N-((3-nitro-4-(((4-((4-oxido-1,4λ^6-oxathian-4-ylidene)amino)cyclohexyl)methyl)amino)phenyl)sulfonyl) benzamide]	4	9		
CCN=S1(=O)CCN(CC[C@H](C)Nc2ccc(S(=O)(=O)NC(=O)c3ccc(N4CCN(CC5=C(c6ccc(Cl)cc6)CC(C)(C)CC5)CC4)cc3Oc3cnc4[nH]ccc4c3)cc2S(=O)(=O)C(F)(F)F)CC1 [Example 87, (S)-2-((1H-pyrrolo[2,3-b]pyridin-5-yl)oxy)-4-(4-((4′-chloro-5,5-dimethyl-3,4,5,6-tetrahydro-[1,1′-biphenyl]-2-yl)methyl)piperazin-1-yl)-N-((4-((4-(1-(ethylimino)-1-oxido-1λ^6-thiomorpholino)butan-2-yl)amino)-3-((trifluoromethyl)sulfonyl)phenyl)sulfonyl) benzamide]			145	266
CC(C)C(=O)N=S1(=O)CCN(C[C@H](C)Nc2ccc(S(=O)(=O)NC(=O)c3ccc(N4CCN(CC5=C(c6ccc(Cl)cc6)CC(C)(C)CC5)CC4)cc3Oc3cnc4[nH]ccc4c3)cc2[N+](=O)[O-])CC1 [Example 66, (S)-2-((1H-pyrrolo[2,3-b]pyridin-5-yl)oxy)-4-(4-((4′-chloro-5,5-dimethyl-3,4,5,6-tetrahydro-[1,1′-biphenyl]-2-yl)methyl)piperazin-1-yl)-N-((4-((1-(1-(isobutyrylimino)-1-oxido-1λ^6-thiomorpholino)propan-2-yl)amino)-3-nitrophenyl)sulfonyl) benzamide]	11	23		
C[C@@H](CN1CCP(C)(=O)CC1)Nc1ccc(S(=O)(=O)NC(=O)c2ccc(N3CCN(CC4=C(c5ccc(Cl)cc5)CC(C)(C)CC4)CC3)cc2Oc2cnc3[nH]ccc3c2)cc1S(=O)(=O)C(F)(F)F [Example 49, (S)-2-((1H-pyrrolo[2,3-b]pyridin-5-yl)oxy)-4-(4-((4′-chloro-5,5-dimethyl-3,4,5,6-tetrahydro-[1,1′-biphenyl]-2-yl)methyl)piperazin-1-yl)-N-((4-((1-(4-methyl-4-oxido-1,4-azaphosphinan-1-yl)propan-2-yl)amino)-3-((trifluoromethyl)sulfonyl)phenyl)sulfonyl)benzamide]	54	107		
CC1(C)CCC(CN2CCN(c3ccc(C(=O)NS(=O)(=O)c4ccc(NCCN5CCS(=O)(=NC6CC6)CC5)c([N+](=O)[O-])c4)c(Oc4cnc5[nH]ccc5c4)c3)CC2)=C(c2ccc(Cl)cc2)C1 [Example 35, 2-((1H-pyrrolo[2,3-b]pyridin-5-yl)oxy)-4-(4-((4′-chloro-5,5-dimethyl-3,4,5,6-tetrahydro-[1,1′-biphenyl]-2-yl)methyl)piperazin-1-yl)-N-((4-((2-(1-(cyclopropylimino)-1-oxido-1λ^6-thiomorpholino)ethyl)amino)-3-nitrophenyl)sulfonyl)benzamide]	60	181		
CC(C)C(=O)N=S1(=O)CCN(CC[C@H](C)Nc2ccc(S(=O)(=O)NC(=O)c3ccc(N4CCN(CC5=C(c6ccc(Cl)cc6)CC(C)(C)CC5)CC4)cc3Oc3cnc4[nH]ccc4c3)cc2[N+](=O)[O-])CC1 [Example 82, (S)-2-((1H-pyrrolo[2,3-b]pyridin-5-yl)oxy)-4-(4-((4′-chloro-5,5-dimethyl-3,4,5,6-tetrahydro-[1,1′-biphenyl]-2-yl)methyl)piperazin-1-yl)-N-((4-((4-(1-(isobutyrylimino)-1-oxido-1λ^6-thiomorpholino)butan-2-yl)amino)-3-nitrophenyl)sulfonyl)benzamide]	10	18		
